Measured values from PubChem BioAssay (NCI).
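All cell lines were grown in 96-well plates and treated with compound for 48 hours. GI50 is the concentration that inhibits growth by half. TGI marks complete inhibition of growth.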

Key:
Assay in all cases: NCI anticancer screen, dose series, 48 h
786-0 renal = test system: 786-0 renal
A498 renal = test system: A498 renal
ACHN renal = test system: ACHN renal
CAKI-1 renal = test system: CAKI-1 renal
HS 578T breast = test system: HS 578T breast
K-562 leukemia = test system: K-562 leukemia
KM12 colon = test system: KM12 colon
MDA-MB-231 breast = test system: MDA-MB-231 breast
MOLT-4 leukemia = test system: MOLT-4 leukemia
T-47D breast = test system: T-47D breast

In the case of `C#CCOc1cccc(Nc2ncc3ncn(C4CCN(C(=O)CCl)C4)c3n2)c1` (centres undefined), the GI50 (786-0 renal) was greater than 62.5 µM, the TGI (786-0 renal) was greater than 62.5 µM and the GI50 (A498 renal) was greater than 62.5 µM. The TGI (A498 renal) was greater than 62.5 µM, the GI50 (ACHN renal) was 14.6 µM and the TGI (ACHN renal) was 46.2 µM. It also gave a GI50 (CAKI-1 renal) greater than 62.5 µM, a TGI (CAKI-1 renal) greater than 62.5 µM and a GI50 (HS 578T breast) greater than 62.5 µM. It also gave a TGI (HS 578T breast) greater than 62.5 µM, a GI50 (K-562 leukemia) of 17.9 µM and a TGI (K-562 leukemia) greater than 62.5 µM. The GI50 (KM12 colon) was greater than 62.5 µM, the TGI (KM12 colon) was greater than 62.5 µM and the GI50 (MDA-MB-231 breast) was greater than 62.5 µM. For the same molecule, the TGI (MDA-MB-231 breast) was greater than 62.5 µM, the GI50 (MOLT-4 leukemia) was 11.3 µM and the TGI (MOLT-4 leukemia) was greater than 62.5 µM. The GI50 (T-47D breast) was greater than 62.5 µM and the TGI (T-47D breast) was greater than 62.5 µM.
Work on `CCC(=O)OC1=CN2C(=NC(c3ccc(N)cc3)=CC2c2cc(OC)c(OC)c(OC)c2)S1` (centres undefined) yielded a GI50 (786-0 renal) of 4.57 µM, a TGI (786-0 renal) of 23.4 µM and a GI50 (A498 renal) of 5.3 µM. It also gave a TGI (A498 renal) of 20.8 µM, a GI50 (ACHN renal) of 3.35 µM and a TGI (ACHN renal) of 18.2 µM. It also gave a GI50 (CAKI-1 renal) of 2.91 µM, a TGI (CAKI-1 renal) of 11.2 µM and a GI50 (HS 578T breast) of 3.6 µM. The TGI (HS 578T breast) was greater than 100 µM, the GI50 (K-562 leukemia) was 3.47 µM and the TGI (K-562 leukemia) was greater than 100 µM. It also gave a GI50 (KM12 colon) of 3.48 µM, a TGI (KM12 colon) of 11.7 µM and a GI50 (MDA-MB-231 breast) of 4.39 µM. For the same molecule, the TGI (MDA-MB-231 breast) was 21.3 µM, the GI50 (MOLT-4 leukemia) was 3.89 µM and the TGI (MOLT-4 leukemia) was 64.7 µM. It also gave a GI50 (T-47D breast) of 4.01 µM and a TGI (T-47D breast) of 30.8 µM.
For `O=C(Nc1cccc([N+](=O)[O-])c1)c1cc2ccccc2cc1O`, the GI50 (786-0 renal) was 1.28 µM, the TGI (786-0 renal) was 4.74 µM and the GI50 (A498 renal) was 1.41 µM. For the same molecule, the TGI (A498 renal) was 6.19 µM, the GI50 (ACHN renal) was 2.03 µM and the TGI (ACHN renal) was 7.79 µM. It also gave a GI50 (CAKI-1 renal) of 1.16 µM, a TGI (CAKI-1 renal) of 4.88 µM and a GI50 (HS 578T breast) of 1.24 µM. The TGI (HS 578T breast) was 10.4 µM, the GI50 (K-562 leukemia) was 0.845 µM and the TGI (K-562 leukemia) was 11 µM. For the same molecule, the GI50 (KM12 colon) was 2.41 µM, the TGI (KM12 colon) was 6.44 µM and the GI50 (MDA-MB-231 breast) was 1.47 µM. It also gave a TGI (MDA-MB-231 breast) of 3.64 µM, a GI50 (MOLT-4 leukemia) of 2.08 µM and a TGI (MOLT-4 leukemia) of 6.24 µM. For the same molecule, the GI50 (T-47D breast) was 2.47 µM and the TGI (T-47D breast) was 7.88 µM.
Work on `COc1cc(CNC(=O)CCSc2nc3ccccc3c(=O)n2Cc2cc(OC)c(OC)c(OC)c2)cc(OC)c1OC` yielded a GI50 (786-0 renal) of 5.1 µM, a TGI (786-0 renal) of 29 µM and a GI50 (A498 renal) of 4.05 µM. It also gave a TGI (A498 renal) of 21.1 µM, a GI50 (ACHN renal) of 8.09 µM and a TGI (ACHN renal) greater than 100 µM. The GI50 (CAKI-1 renal) was 5.46 µM, the TGI (CAKI-1 renal) was greater than 100 µM and the GI50 (HS 578T breast) was 5.24 µM. For the same molecule, the TGI (HS 578T breast) was greater than 100 µM, the GI50 (KM12 colon) was 3.98 µM and the TGI (KM12 colon) was greater than 100 µM. The GI50 (MDA-MB-231 breast) was 5.36 µM, the TGI (MDA-MB-231 breast) was 48.3 µM and the GI50 (MOLT-4 leukemia) was 7.38 µM. For the same molecule, the TGI (MOLT-4 leukemia) was greater than 100 µM, the GI50 (T-47D breast) was 5.52 µM and the TGI (T-47D breast) was 34 µM.
`CC(C)N(Cc1ccccc1)S(=O)(=O)c1n[nH]c(C(C)(C)C)n1` was tested, and the TGI (786-0 renal) was greater than 100 µM, the TGI (A498 renal) was greater than 100 µM and the TGI (ACHN renal) was greater than 100 µM. The TGI (CAKI-1 renal) was greater than 100 µM, the TGI (HS 578T breast) was greater than 100 µM and the TGI (K-562 leukemia) was greater than 100 µM. For the same molecule, the TGI (KM12 colon) was greater than 100 µM, the TGI (MDA-MB-231 breast) was greater than 100 µM and the TGI (T-47D breast) was greater than 100 µM.
In the case of `COc1cc(N=Nc2cccc(S(N)(=O)=O)c2)c2ccccc2c1N`, the TGI (786-0 renal) was 26.9 µM, the TGI (A498 renal) was 34.7 µM and the TGI (ACHN renal) was 30.3 µM. For the same molecule, the TGI (CAKI-1 renal) was 20.8 µM, the TGI (HS 578T breast) was greater than 27.2 µM and the TGI (K-562 leukemia) was 37.7 µM. It also gave a TGI (KM12 colon) of 26.4 µM, a TGI (MDA-MB-231 breast) of 26.5 µM and a TGI (MOLT-4 leukemia) of 25.2 µM. The TGI (T-47D breast) was greater than 61.2 µM.
With `N#Cc1c(NCc2ccccc2)nc(NCc2ccccc2)c(C#N)c1-c1cccc(O)c1` the GI50 (786-0 renal) was 13 µM, the TGI (786-0 renal) was 27.6 µM and the GI50 (A498 renal) was 2.01 µM. The TGI (A498 renal) was 5.77 µM, the GI50 (ACHN renal) was 2.63 µM and the TGI (ACHN renal) was 11.7 µM. It also gave a GI50 (CAKI-1 renal) of 2.77 µM, a TGI (CAKI-1 renal) of 19.4 µM and a GI50 (HS 578T breast) of 3.76 µM. The TGI (HS 578T breast) was 20.7 µM, the GI50 (KM12 colon) was 4.03 µM and the TGI (KM12 colon) was greater than 100 µM. For the same molecule, the GI50 (MDA-MB-231 breast) was 2.23 µM, the TGI (MDA-MB-231 breast) was 7.34 µM and the GI50 (MOLT-4 leukemia) was 3.3 µM. It also gave a TGI (MOLT-4 leukemia) greater than 100 µM, a GI50 (T-47D breast) of 4.03 µM and a TGI (T-47D breast) greater than 100 µM.
`N#Cc1ccc2c(c1)C(=O)c1c-2n(CCCN=[N+]=[N-])c(=O)c2cc([N+](=O)[O-])ccc12` showed a GI50 (786-0 renal) of 23 µM, a TGI (786-0 renal) greater than 50 µM and a GI50 (A498 renal) greater than 50 µM. The TGI (A498 renal) was greater than 50 µM, the GI50 (ACHN renal) was 5.28 µM and the TGI (ACHN renal) was greater than 50 µM. For the same molecule, the GI50 (CAKI-1 renal) was 9.86 µM, the TGI (CAKI-1 renal) was greater than 50 µM and the GI50 (HS 578T breast) was greater than 50 µM. The TGI (HS 578T breast) was greater than 50 µM, the GI50 (KM12 colon) was greater than 50 µM and the TGI (KM12 colon) was greater than 50 µM. It also gave a GI50 (MDA-MB-231 breast) greater than 50 µM, a TGI (MDA-MB-231 breast) greater than 50 µM and a GI50 (MOLT-4 leukemia) of 1.8 µM. It also gave a TGI (MOLT-4 leukemia) of 9 µM, a GI50 (T-47D breast) of 8.63 µM and a TGI (T-47D breast) greater than 50 µM.
With `CC(C)=CCC/C(C)=C/[C@H]1OC(=O)CC12C[C@H](O)C=CC2=O` (some centres undefined) the GI50 (786-0 renal) was 0.727 µM, the TGI (786-0 renal) was 1.93 µM and the GI50 (A498 renal) was 1.47 µM. For the same molecule, the TGI (A498 renal) was 3.09 µM, the GI50 (CAKI-1 renal) was 0.827 µM and the TGI (CAKI-1 renal) was 2.3 µM. The GI50 (HS 578T breast) was 1.81 µM, the TGI (HS 578T breast) was 5.02 µM and the GI50 (K-562 leukemia) was 0.363 µM. It also gave a TGI (K-562 leukemia) greater than 100 µM, a GI50 (KM12 colon) of 0.777 µM and a TGI (KM12 colon) of 2.67 µM. For the same molecule, the GI50 (MDA-MB-231 breast) was 1.55 µM, the TGI (MDA-MB-231 breast) was 3.29 µM and the GI50 (T-47D breast) was 0.194 µM. The TGI (T-47D breast) was 0.692 µM.
For `C=Cc1cnc([N+](=O)[O-])n1C`, the TGI (786-0 renal) was greater than 100 µM, the TGI (A498 renal) was 98.7 µM and the TGI (ACHN renal) was greater than 100 µM. It also gave a TGI (CAKI-1 renal) greater than 100 µM, a TGI (HS 578T breast) of 99.9 µM and a TGI (KM12 colon) greater than 100 µM. The TGI (MDA-MB-231 breast) was greater than 100 µM, the TGI (MOLT-4 leukemia) was greater than 100 µM and the TGI (T-47D breast) was greater than 100 µM.
In the case of `O=c1oc2cc(OS(=O)(=O)c3ccccc3)ccc2c2c1CCCCC2`, the GI50 (786-0 renal) was 6.24 µM, the TGI (786-0 renal) was greater than 100 µM and the GI50 (A498 renal) was greater than 100 µM. The TGI (A498 renal) was greater than 100 µM, the GI50 (ACHN renal) was greater than 100 µM and the TGI (ACHN renal) was greater than 100 µM. It also gave a GI50 (CAKI-1 renal) of 7.38 µM, a TGI (CAKI-1 renal) greater than 100 µM and a GI50 (HS 578T breast) greater than 100 µM. For the same molecule, the TGI (HS 578T breast) was greater than 100 µM, the GI50 (K-562 leukemia) was 4.06 µM and the TGI (K-562 leukemia) was greater than 100 µM. It also gave a GI50 (MDA-MB-231 breast) greater than 100 µM, a TGI (MDA-MB-231 breast) greater than 100 µM and a GI50 (MOLT-4 leukemia) of 4.35 µM. The TGI (MOLT-4 leukemia) was greater than 100 µM, the GI50 (T-47D breast) was 3.79 µM and the TGI (T-47D breast) was greater than 100 µM.
`O=C(O)c1cc2c(c3ccsc13)-c1ccccc1CC2` gave a GI50 (786-0 renal) of 49.7 µM, a TGI (786-0 renal) greater than 100 µM and a GI50 (A498 renal) of 19.2 µM. For the same molecule, the TGI (A498 renal) was 61.8 µM, the GI50 (ACHN renal) was 36.6 µM and the TGI (ACHN renal) was greater than 100 µM. For the same molecule, the GI50 (CAKI-1 renal) was 52 µM, the TGI (CAKI-1 renal) was greater than 100 µM and the GI50 (HS 578T breast) was 30.5 µM. The TGI (HS 578T breast) was 88.9 µM, the GI50 (K-562 leukemia) was 40.6 µM and the TGI (K-562 leukemia) was greater than 100 µM. For the same molecule, the GI50 (KM12 colon) was 34.3 µM, the TGI (KM12 colon) was greater than 100 µM and the GI50 (MDA-MB-231 breast) was 27.6 µM. For the same molecule, the TGI (MDA-MB-231 breast) was greater than 100 µM, the GI50 (T-47D breast) was 44.7 µM and the TGI (T-47D breast) was greater than 100 µM.
